Data on 2 compounds can be found in patent US10745701B2, “Methods of identifying and treating poor-prognosis cancers” (The Trustees of Princeton University, priority 2007, dated 2020).

In series [1] the test system is LM2 cells. As to the kind of experiment: Chemoresistance clonogenic assay. In kind it is cell-based, human. The settings on record: for chemoresistance on ALDH3A1 overexpression in MTDH knockdown cells: constitutive ALDH3A1 overexpression in MTDH knockdown LM2 cells; for sensitivity of LM2 cells on ALDH3A1 knockdown: inducible ALDH3A1 shRNA induced by doxycycline. The procedure: The infected cells were selected with 0.5 μg/ml puromycin or/and 0.4 mg/ml hygromycin. Double knockdown of MET and ALDH3A1 was achieved by simultaneous infection of MET and ALDH3A1 targeting viruses with different drug selection markers. MTDH, LAPTM4b, PTDSS1, SDC2, TSPYL5, and UQCRB overexpression was achieved using the retroviral expression vector pBabe-hygro. Viruses were generated and used to infect target cells as above and the infected cells were selected with 0.4 mg/ml hygromycin. For combinational overexpression of genes at 8q22, the viruses generated from the expression vector pBabe-puro containing each of the four genes were concentrated by ultracentrifugation and pooled for infection. Northern blots, qRT-PCR, and/or Western blots were performed to validate the knockdown or overexpression of target genes.
To generate an inducible knockdown of ALDH3A1, a retroviral vector expressing the Tet repressor (TetR) was constructed by cloning the TetR coding sequence from the pcDNA6/TR plasmid (Invitrogen) to pQCXIH (Clontech). LM2 cell line with stable expression of TetR was generated by transduction with retroviruses produced from pQCXIH-TetR. The cell line was then infected with retroviruses generated from the pRSMX vector^77 containing the ALDH3A1-targeting shRNA sequence. The expression of a shRNA against ALDH3A1 is under the control of the histone H1 promoter and two adjacent tetracycline operators (TetOs). The bacterial Tet repressor (TetR) is constitutively expressed from the integrated pQCXIH-TetR in this cell line and suppresses the expression of shRNA by binding to TetOs. In the presence of […] doxycycline in the media, TetR is released from the TetOs and allow the transcription of ALDH3A1 shRNA and thus the repression of ALDH3A1 expression. The pBabe-hygro vector was used to overexpress ALDH3A1.
Cancer cells with genetic modification of MTDH and/or ALDH3A1 and the vector control were seeded into a 48-well plate (10^4 cells/well). After 24 h, the cells were treated with apoptosis-inducing chemicals for the indicated time (20, 50 or 100 nM paclitaxel, EMD Biosciences, 24 h; 50, 100 or 200 μM doxorubicin, EMD Biosciences, 24 h; 40 μM cisplatin, EMD Biosciences, 2 h; 200 or 500 μM H2O2, Fisher Scientific, 2 h) or 10 mJ/cm^2 UV irradiation. After culturing in drug-free DMEM medium for another 48 h, the surviving cells were quantified by clonogenic assay with the standard procedure for long-term recovery. Briefly, an aliquot of the harvested cell population was seeded onto a 10 cm dish. Crystal violet staining was used to count the colonies after 10-day culture in DMEM medium. The colony numbers from untreated cells of the same line were used to normalize the experimental data. In the HMVEC-L co-culture assays, HMVEC-L cells were grown to confluence in the 48-well plates with supplemented EGM-2 medium (Lonza) before seeding of cancer cells. Because HMVEC-L cells could not form colonies in the DMEM medium (data not shown), the rest of the assay was performed following the standard procedure.

Series [2] relates to LM2 cells. Briefly: Drug uptake and retention analysis of radiolabeled paclitaxel and doxorubicin. To be noted: for effect of MTDH on drug uptake or retention: cancer cells with modified MTDH expression (LM2 knockdown, SCP28 overexpression); for kinetics of uptake and retention: parent LM2 cells, pilot study, 50 nM [H3]-paclitaxel or 100 nM [C14]-doxorubicin.
Protocol: Cells were seeded into 12 well plates at densities of 3×10^5 per well in 1 ml of culture medium. One day after seeding, the medium was replaced with 1 ml of medium containing 50 nM [H^3]-Paclitaxel (Moravek, 2 Ci/mmol) or 100 nM [C^14]-Doxorubicin (GE HealthCare, 56 mCi/mmol). […] For the uptake study, cells were harvested immediately after incubation with drug-containing medium. For the retention study, cells were incubated with drug-containing medium for 4 h, followed by incubation in 2 ml drug-free medium and then harvested. After washing with cold PBS, the pelleted cells were lysed with 200 ul of 0.1N NaOH. An aliquot (5 ul) was used to determine the protein concentration by Bradford assay (Sigma-Aldrich) with BSA as standards. The remaining cell lysates were transferred to scintillation count vials and mixed with 4 ml ECoScint scintillation fluid (National Diagnostics) and the radioactivity was measured by liquid scintillation counting. A standard curve was established and used to calculate the amount of cell-associated drug.
Series [3] relates to LM2 cells. Briefly: In vivo chemoresistance assay, subcutaneous LM2 xenograft tumors. Details: species or system nude mice. The procedure:
MTDH-knockdown or control LM2 cells (1×10^6 cells/0.1 ml in a 50:50 solution of PBS and Matrigel) were injected subcutaneously into each flank of nude mice. The mice were treated with chemotherapeutic drugs (20 mg/kg paclitaxel or 5 mg/kg doxorubicin) or the corresponding drug vehicles (Cremophor for paclitaxel and saline for doxorubicin) twice a week by intravenous delivery a week after the tumor xenografting. Six mice (12 tumors) were used for each group. Tumor growth was monitored twice a week by size measurement. Both maximum (L) and minimum (W) diameters of the tumor were measured using a slide caliper, and the tumor volume was calculated as […]LW^2/6. Tumor growth was normalized to that before drug treatment.

Take `COc1cccc2c1C(=O)c1c(O)c3c(c(O)c1C2=O)C[C@@](O)(C(=O)CO)C[C@@H]3O[C@H]1C[C@H](N)[C@H](O)[C@H](C)O1` [doxorubicin]: the “chemoresistance on MET knockdown” value in the series with LM2 cells [1] (MET knockdown in LM2 cells, weaker than MTDH knockdown) is “significant reduction of chemoresistance”. In the series on LM2 cells [1], the “chemoresistance on ALDH3A1 overexpression in MTDH knockdown cells” value was “partially restore” and the “sensitivity of LM2 cells on ALDH3A1 knockdown” value is recorded as “more sensitive”. Further, in the series on LM2 cells [2], the “effect of MTDH on drug uptake or retention” value is “does not decrease drug uptake or retention”; the “kinetics of uptake and retention” value was “biphasic kinetics”.
For the compound `CC(=O)O[C@H]1C(=O)[C@@]2(C)[C@H]([C@H](OC(=O)c3ccccc3)[C@]3(O)C[C@H](OC(=O)[C@H](O)[C@@H](NC(=O)c4ccccc4)c4ccccc4)C(C)=C1C3(C)C)[C@]1(OC(C)=O)CO[C@@H]1C[C@@H]2O` [paclitaxel], in the series with LM2 cells [1], the “chemoresistance on ALDH3A1 overexpression in MTDH knockdown cells” value is “partially restore” and the “sensitivity of LM2 cells on ALDH3A1 knockdown” value is reported as “more sensitive”. Moreover, the “tumor size relative to pre-treatment size” value in the series on LM2 cells [3] (MTDH knockdown LM2 cells, 20 mg/kg paclitaxel intravenous twice a week, 18 days after initiation of treatment) was “about 30%”. Also, the “tumor response in MTDH knockdown tumors” value in the series on LM2 cells [3] (MTDH knockdown LM2 cells, paclitaxel 20 mg/kg or doxorubicin 5 mg/kg twice a week) was “tumor regression”. The “tumor volume relative to volume before treatment” value with LM2 cells [3] (control LM2 cells, 20 mg/kg paclitaxel intravenous twice a week, 18 days after treatment) is reported as 140%. Also, in the series on LM2 cells [3] (control LM2 cells, versus drug vehicle), the “effect on tumor growth” value is given as “significantly hampered tumor growth”. Further, in the series on LM2 cells [2], the “effect of MTDH on drug uptake or retention” value was “does not decrease drug uptake or retention”; the “kinetics of uptake and retention” value was “biphasic kinetics”.
